Measurements reported in PMC3790851, “Improved Mass Spectrometry Assay For Plasma Hepcidin: Detection and Characterization of a Novel Hepcidin Isoform” (PLoS ONE, 2013).

What was measured:
[1] = Stability of hepcidin in plasma/serum at room temperature (WCX-TOF MS); format: in vitro ADME, human
Experimental: Spectra were analyzed by using Bruker Daltonics FlexAnalysis software.
To assess the stability of hepcidin in serum and plasma matrices, we kept samples from intensive care patients (n = 20) and healthy controls (n = 5) at room temperature for 0–7 days followed by WCX-TOF MS analysis using the hepcidin-25^+40 internal standard. […] For the samples at day 1 and day 7, the mean decrease in hepcidin-25 for the 5 controls and 20 intensive care patients was 90% (CV, 8% ) and 55% (CV, 23%), respectively (Table 3).

[2] = serum from 12 healthy controls; stable for; ref 35 Itkonen et al.; cited from earlier work
[3] = target: T1, green fluorescent protein (GFP)-fused human ferroportin (Homo sapiens, UniProt Q9NP59); test: Hepcidin bioactivity assay: GFP-ferroportin internalization and degradation; format: cell-based; details: stable cell line, inducible GFP-fused human ferroportin; fluorescence in triplicate wells; four parameter logistic fit; 95% confidence interval: hepcidin-24 126.8 nM - 289.2 nM, hepcidin-25 12.2 nM –17.8 nM; read-out: EC50 for ferroportin internalization and degradation
T1 construct: expressed in transfected cells
T1 sequence (Q9NP59 1-571): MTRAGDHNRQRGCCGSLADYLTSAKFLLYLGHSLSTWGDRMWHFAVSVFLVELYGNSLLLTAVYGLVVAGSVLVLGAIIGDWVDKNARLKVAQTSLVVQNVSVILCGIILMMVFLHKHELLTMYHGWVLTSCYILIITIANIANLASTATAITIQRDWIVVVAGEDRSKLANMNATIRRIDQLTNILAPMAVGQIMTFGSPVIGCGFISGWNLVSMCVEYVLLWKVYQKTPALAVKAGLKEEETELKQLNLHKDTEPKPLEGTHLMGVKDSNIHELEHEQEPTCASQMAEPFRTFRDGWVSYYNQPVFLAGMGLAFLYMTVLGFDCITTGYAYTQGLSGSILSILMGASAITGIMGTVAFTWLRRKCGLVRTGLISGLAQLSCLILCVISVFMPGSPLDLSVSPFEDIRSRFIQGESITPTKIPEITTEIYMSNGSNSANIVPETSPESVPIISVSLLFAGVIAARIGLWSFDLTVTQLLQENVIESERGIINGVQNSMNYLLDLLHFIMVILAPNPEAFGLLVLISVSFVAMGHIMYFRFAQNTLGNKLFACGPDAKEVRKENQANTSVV
Description: A stable cell line engineered for inducible expression of green fluorescent protein (GFP)-fused human ferroportin was used as a test system to determine hepcidin-24 activity relative to hepcidin-25, 22 and 20. In this cell system, ferroportin internalization and degradation provided a means to quantify hepcidin activity. The assay was implemented basically as described by Nemeth et al., [33] except that fluorescence was quantified in triplicate wells on a microplate reader. To determine EC50 values for hepcidin-25 and hepcidin-24, a curve was fitted by nonlinear regression with a four parameter logistic equation using Prism v5 (GraphPad).
Figure 5 Hepcidin-mediated ferroportin internalization. Different concentrations of synthetic hepcidin-25, -24, -22 and -20 (indicated in nM on the horizontal axis) were added to the growth medium of a stable cell line that expresses green fluorescent protein-fused ferroportin (GFP-FPN). Hepcidin-mediated GFP-FPN internalization and degradation was quantified by measuring cellular fluorescence levels in arbitrary units.

in vitro [4] = details: human, heparin plasma
Experimental: (§1) Samples were used for measurement of hepcidin between 4–7 hrs after blood drawing and/or pooled and/or stored in aliquots at various temperatures for prolonged periods of time.
(§2) Fresh samples were measured within 2–4 hrs hours after blood drawing and stored in aliquots at various temperatures for prolonged incubation.
(§3) Mass-to-charge (m/z) spectra were generated by using MALDI-TOF MS (Microflex LT, Bruker Daltonics). Spectra were analyzed by using Bruker Daltonics FlexAnalysis software. […] Total hepcidin concentration was defined as the sum of hepcidin-25, -24, -22, and -20 concentrations.
(§4) Using the novel heavy hepcidin-25 internal standard, we assessed changes in hepcidin-25 and the smaller isoforms in various samples containing various anticoagulants ex vivo at room temperature (RT), 4°C, −20°C and −80°C. More specifically, changes in hepcidin concentrations relative to those found in freshly collected samples were determined i) at storage at RT and 4°C on day 0 (fresh samples), 1 (14–22 hrs), 2, 3, and 7 days after sampling/storage, ii) at −20°C after 1 week, and after 1, 4 and 6 months of storage and iii) at −80°C at after 6 months of storage.

in vitro [5] = details: human
Experimental: as §1, §2, §3, §4
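Wherever Hepcidin level after one week at -20°C, EDTA plasma is given: hepcidin in stored plasma or serum quantified by MALDI-TOF MS against a heavy hepcidin-25 internal standard, expressed relative to concentrations in freshly collected samples.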
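Wherever no significant change at -20°C for is given: hepcidin in stored plasma or serum quantified by MALDI-TOF MS against a heavy hepcidin-25 internal standard, expressed relative to concentrations in freshly collected samples.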
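Wherever stable at -20°C for is given: hepcidin in stored plasma or serum quantified by MALDI-TOF MS against a heavy hepcidin-25 internal standard, expressed relative to concentrations in freshly collected samples.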

Structure (SMILES): CC[C@H](C)[C@@H]1NC(=O)[C@@H](NC(=O)[C@@H](NC(=O)[C@@H]2CCCN2C(=O)[C@H](Cc2ccccc2)NC(=O)[C@H](Cc2c[nH]cn2)NC(=O)[C@@H](NC(=O)[C@@H](N)CC(=O)O)[C@@H](C)O)[C@@H](C)CC)CSSC[C@@H](C(=O)N[C@@H](CCCCN)C(=O)N[C@H](C(=O)O)[C@@H](C)O)NC(=O)[C@@H]2CSSC[C@H](NC(=O)[C@H](Cc3ccccc3)NC1=O)C(=O)N[C@H]1CSSC[C@H](NC(=O)[C@H](CCCCN)NC(=O)[C@H](CO)NC(=O)[C@H](CCCNC(=N)N)NC(=O)[C@H](Cc3c[nH]cn3)NC(=O)[C@@H]3CSSC[C@H](NC(=O)CNC1=O)C(=O)N3)C(=O)NCC(=O)N[C@@H](CCSC)C(=O)N2 [Hepcidin-25]
- stable at -20°C for (EDTA and heparin plasma of 10 intensive care patients and 5 controls): at least 4 weeks
- Hepcidin level after one week at -20°C, EDTA plasma (average, % of fresh, 10 IC patients and 5 controls, CV (Hep-25/-24/-22/-20) 11/12/11/28, n = 15/8/6/9, hepcidin-20 unreliable (additional peak)): 96%
- hepcidin-25 relative to fresh samples upon freezing (heparin samples at 7 days, -20°C, IC + control n = 15, CV 8%): 95%
- no significant change at -20°C for (serum, heparin, EDTA and citrate plasma of healthy controls (n = 5)): at least 6 months
- Hepcidin level after one week at RT ([1]; average, % of fresh sample, 7 days, human heparin plasma, 19 IC patients + 5 controls, results <1.0 nM removed, WCX-TOF MS, hepcidin-25^+40 internal standard, CV (Hep-25/-24/-22/-20/Total) 23/29/29/38/17, n = 24/15/13/18/11): 55%
- Hepcidin level after one day at RT ([1]; average, % of fresh sample, human heparin plasma, 19 IC patients + 5 controls, results <1.0 nM removed, WCX-TOF MS, hepcidin-25^+40 internal standard, CV (Hep-25/-24/-22/-20/Total) 8/21/14/25/5, n = 24/15/13/18/11): 90%
- Hepcidin level after one week at RT, without protease inhibitors ([1]; average, % of fresh, 7 days, heparin plasma, 10 IC patients, results <1 nM excluded, CV (Hep-25/-24/-22/-20) 30/31/23/41, n = 10/8/7/8): 48%
- Hepcidin level after one day at RT, without protease inhibitors ([1]; average, % of fresh, heparin plasma, 10 IC patients, results <1 nM excluded, CV (Hep-25/-24/-22/-20) 13/20/11/11, n = 10/8/7/8): 89%
- mean hepcidin-25 level remaining at day 1 at RT, % of fresh ([1]; heparin plasma, 5 controls and 20 intensive care patients, CV 8%): 90%
- effect of protease inhibitors on hepcidin-25 decrease ([1]; heparin samples of IC patients (n = 10), RT): prevented hepcidin-25 processing to a certain extend but did not block its decrease completely
- remaining at 168 h ([1]; human, average, % of fresh, 7 days, heparin plasma, 10 IC patients, Complete Mini (Roche), CV (Hep-25/-24/-22/-20) 25/35/9/25, n = 10/8/7/8, read-out: Hepcidin level after one week at RT, with protease inhibitors): 69%
- remaining at 1 day ([1]; human, average, % of fresh, heparin plasma, 10 IC patients, Complete Mini (Roche), 1 tablet in 200 µL PBS, 20 µL per 1 ml plasma, CV (Hep-25/-24/-22/-20) 8/30/4/14, n = 10/8/7/8, read-out: Hepcidin level after one day at RT, with protease inhibitors): 91%
- stability at room temperature [2]: 1 days
- EC50 [3]: 14.7 nM
- remaining at 168 h (in vitro [4]): 99%
- remaining at 1 mnt (in vitro [5]; EDTA plasma): 94%
- remaining at 4 mnts (in vitro [5]; EDTA plasma): 92%
- remaining at 6 months (in vitro [5]; EDTA plasma): 88%
- remaining at 168 h (in vitro [5]; EDTA plasma): 89%
- remaining at 672 h (in vitro [5]; EDTA plasma): 99%
- remaining at 1 mnt (in vitro [5]; citrate plasma): 95%
- remaining at 4 mnts (in vitro [5]; citrate plasma): 102%
- remaining at 6 mnts (in vitro [5]; citrate plasma): 97%
- remaining at 168 h (in vitro [5]; citrate plasma): 97%
- remaining at 1 mnt (in vitro [5]; heparin plasma): 92%
- remaining at 4 mnts (in vitro [5]; heparin plasma): 100%
- remaining at 6 mnts (in vitro [5]; heparin plasma): 83%
- remaining at 168 h (in vitro [5]; heparin plasma): 96%
- remaining at 672 h (in vitro [5]; heparin plasma): 97%
- remaining at 1 mnt (in vitro [5]; serum): 96%
- remaining at 4 mnts (in vitro [5]; serum): 98%
- remaining at 6 mnts (in vitro [5]; serum): 99%
- remaining at 168 h (in vitro [5]; serum): 97%
